Measurements published in patent publication US20100047191A1, “NOVEL USE” (priority 2007, published 2010).

Columns and labels:
[1] = Hydroxyapatite microplate erosion method (phosphate release after 1% citric acid, pH 3.8); details: Example 7
Method: The wells of 96-well 200 μl microplates were filled with a concentrated suspension of high resolution hydroxyapatite (HA) powder (20 g HA in 200 ml acetone). The plates were allowed to dry under agitation (50 rpm on an orbital shaker) and then washed thoroughly with deionised water to remove any loose HA. For erosion experiments, the wells of the HA coated microplates were filled with deionised water and left to hydrate for 60 mins. The water was then removed and each of the 8 wells of one lane of the microplate filled with 200 μl of one of the agents to be tested. Each plate contained 12 lanes, so 6 agents could be tested in duplicate (at n=8) in each microplate. The actives were left in the wells for 30 mins under agitation, after which time the plates were again washed thoroughly with deionised water. The erosive challenge used for the study was an orange juice mimic, 1% citric acid, pH 3.8. The wells of the plate were exposed to 200 μl of the citric acid solution under agitation for 30 mins. After the acid challenge, 50 μl of the citric acid was removed from each well and placed into the corresponding well of a new 96-well microplate. 50 μl of vanadomolybdate reagent was then added to each well and after 5 mins, the absorbance of the solution in each well at 450 nm was read using a microplate plate reader. The test agents assessed using this technique were nanoparticulate zinc oxide aqueous suspension, 0.5 wt % in water, stabilised with both anionic and cationic dispersants (Nanoshield ZN-3008C and Nanoshield ZN-3014A respectively, both 70 nm average particle size and obtained from Nanophase Technologies, 1319 Marquette Drive, Romeoville, Ill. 60446. USA).
The chart contains data from one microplate, where treatments have been carried out in duplicate at n=8 each time, as described above. […] The positive control used was 300 ppm fluoride, and the negative control was deionised water.
An additional experiment was performed as described in Example 4, where the stabilising agent for the nanoparticulate zinc oxide (0.5 wt % suspension in water) was sodium hexametaphosphate (HMP) present in an amount of 2 wt % with respect to the zinc oxide (ie present in an amount of 0.01 wt %). […] The nanoparticulate zinc oxide was tested in the presence and absence of fluoride again, and at two different pH values (pH 7 and pH 9).
The experiments were performed as described in Example 4 above, using one side of a hydroxyapatite microplate (n=8). The test agents assessed in this case were a) 0.5 wt % Nanoshield ZN-3008C in water, b) 0.5 wt % zinc acetate, c) 0.5 wt % zinc citrate and d) 0.5 wt % zinc oxide (bulk material). […] Positive and negative controls used were 225 ppm fluoride and deionised water respectively.
A final hydroxyapatite microplate experiment was performed as described in Examples 4 and 5 where the stabilising agent for the nanoparticulate zinc oxide was either polyvinyl pyrrolidone (PVP) or Propylene glycol. […] The nanoparticulate zinc oxide was tested in the presence of fluoride in each case.

[2] = repeated acidic erosive challenges; placebo 13.9 μm; cited from earlier work
[3] = Enamel anti-caries softening microhardness study (lactic acid buffer); parameters: species or system human; details: two cycles of 2 minute treatment and two hours 0.1M lactic acid buffer pH 4.5
Method: The study performed involved incubation of human enamel in 0.1M lactic acid buffer (pH 4.5), following a 2 minute treatment with one of the following four formulations: (A) 0.5% suspension of nano ZnO. […] (D) de-ionised water. The zinc oxide used was Nanoshield ZN-3008C as described above in Example 4. Specimens were washed with water in between treatments and erosion procedures. The acid exposure time was two hours, after which the specimens were rinsed in de-ionised water and re-treated with the appropriate formulation for 2 minutes. The specimens then were placed into the lactic acid for a further two hours. After the acid challenge they were washed thoroughly with de-ionised water and the microhardness measured. Six indents were obtained for each enamel specimen and each treatment was performed on six individual specimens (n=6).
The values for enamel hardness have been normalised relative to the individual baseline microhardness values, thus data at subsequent time points reflects softening of the enamel. The error bars in Graph 9 represent standard deviations.

[4] = 20-day in vitro erosion cycling study (microhardness); parameters: species or system human
Description: Human enamel specimens (3×3 mm) were ground and polished using silicon carbide paper. The top side of the specimens was ground using 1200-grit paper and then serially polished using 4000-grit paper followed by […] diamond polishing suspension. Each specimen was mounted on the end of an acrylic rod (¼″ diameter×2″ long) using superglue. The sides of each specimen were covered with an epoxy resin so that only the enamel surface was exposed. Eighteen specimens per group were used for the study. Each group was composed of 3 subgroups of 6 specimens. Initial hardness of the sound specimens was determined using a Vickers hardness indenter by applying a load of 200 g for 15 seconds. The average specimen microhardness was determined from four indentations on the surface of each specimen. Only specimens with a sound surface hardness of between 300 and 350 were accepted. A 50:50 mixture of pooled, human saliva and a mineral solution was used as the remineralisation medium in all treatment regimens, and the demineralising solution was 1% citric acid, pH 3.8. The four treatments considered were: Group A) Deionised water, Group B) 300 ppm Fluoride, Group C) 0.50 wt % ZnO in deionized water, Group D) 0.50 wt % ZnO in 300 ppm Fluoride. […] The cyclic treatment regimen consisted of five, two-minute acid challenges in the demineralizing solution and three, two-minute treatment periods (with stirring at 350 rpm). After each treatment, the specimens were rinsed with running deionized water and then placed back into the saliva remineralization system. This regimen was repeated for 10 days, after which time the specimens were analysed by remeasuring their microhardness. A further 10 days of cycling was then performed and a 20 day microhardness value measured.
Statistical analysis of the data above in Graph 4 was performed with a one-way analysis of variance using Sigma Stat (3.0) Software. ANOVA indicated a significant difference so pair wise comparisons between the groups was conducted (Student Newman Keuls test).

[5] = acidic acetate buffer at pH 4.5; cited from earlier work
[6] = 0.5 wt % in 225 ppm fluoride solution, Graph 6
[7] = 0.5 wt % in deionised water, no fluoride, Graph 5

Row | SMILES | preventing the demineralisation of hydroxyapatite, combination with 225 ppm fluoride compared with 225 ppm fluoride alone [1, 6] | preventing the demineralisation of hydroxyapatite, combination with 225 ppm fluoride compared with water [1, 6] | depth of complete mineral loss [2] | protection from the lactic acid buffer challenge [3] | % VHN compared to baseline, After treatment/acid challenge ([3]; n=6) | Change at 10 days (microhardness vs lesion baseline, mean) ([4]; 10 days cycling) | Post 10 days (Vickers microhardness, mean) ([4]; 10 days cycling: five 2-min 1% citric acid challenges and three 2-min treatments daily, saliva remineralisation) | Change at 20 days (microhardness vs lesion baseline, mean) ([4]; 20 days cycling) | Post 20 days (Vickers microhardness, mean) ([4]; 20 days cycling) | preventing demineralisation of hydroxyapatite, compared with water [1, 7] | preventing the demineralisation of hydroxyapatite, compared with 225 ppm fluoride [1, 7] | decreasing acid dissolution of hydroxyapatite, compared with sodium fluoride [5]
1 | O=C([O-])CC(O)(CC(=O)[O-])C(=O)[O-].O=C([O-])CC(O)(CC(=O)[O-])C(=O)[O-].[Zn+2].[Zn+2].[Zn+2] [Zinc citrate, zinc citrate] | statistically inferior to fluoride alone | statistically superior to water | 10.7 μm | – | – | – | – | – | – | – | – | –
2 | [F-].[Na+] [300 ppm F, sodium fluoride] | – | – | – | approximately 70% | 70% | −64.6 | 189.5 | −20.1 | 234.0 | – | – | –
3 | CC(=O)[O-].CC(=O)[O-].[Zn+2] [zinc acetate] | directionally superior but statistically equivalent to 225 ppm fluoride alone | – | – | – | – | – | – | – | – | statistically superior to water | statistically inferior to both the stabilised nanoparticulate zinc oxide and 225 ppm fluoride | almost as effective as sodium fluoride
